The source of these data is patent publication US20250059171A1 (Hoffmann-La Roche Inc., priority 2021, published 2025).

Where two headings read alike, the source gives them in different places.

One test addresses SARS-CoV-2 3CLpro (Severe acute respiratory syndrome coronavirus 2, UniProt P0DTD1). The test can be described thus: biochemical.
The next test has as its target HCoV-229E 3CLpro (Human coronavirus 229E, UniProt P0C6X1). The test can be described thus: HCoV-229E 3CLpro inhibition assay (FRET). The test is classed as biochemical.
Another test has as its target SARS-CoV 3CLpro (Severe acute respiratory syndrome coronavirus, UniProt P0C6X7). The test is described as follows: biochemical.
In a further test the target is MERS-CoV 3CLpro (Middle East respiratory syndrome-related coronavirus, UniProt K9N7C7). The test is described as follows: biochemical.
Chain of MERS-CoV 3CLpro (K9N7C7 3248-3553): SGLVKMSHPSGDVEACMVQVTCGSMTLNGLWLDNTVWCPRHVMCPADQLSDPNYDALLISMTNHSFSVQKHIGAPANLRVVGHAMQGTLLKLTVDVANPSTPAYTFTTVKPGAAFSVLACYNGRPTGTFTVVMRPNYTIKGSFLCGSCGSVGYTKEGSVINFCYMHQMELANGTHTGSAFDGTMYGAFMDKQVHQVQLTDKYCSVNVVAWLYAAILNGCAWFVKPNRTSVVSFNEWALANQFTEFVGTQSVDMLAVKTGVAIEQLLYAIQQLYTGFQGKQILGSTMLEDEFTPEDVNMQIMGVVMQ

Chain of HCoV-229E 3CLpro (P0C6X1 2966-3267): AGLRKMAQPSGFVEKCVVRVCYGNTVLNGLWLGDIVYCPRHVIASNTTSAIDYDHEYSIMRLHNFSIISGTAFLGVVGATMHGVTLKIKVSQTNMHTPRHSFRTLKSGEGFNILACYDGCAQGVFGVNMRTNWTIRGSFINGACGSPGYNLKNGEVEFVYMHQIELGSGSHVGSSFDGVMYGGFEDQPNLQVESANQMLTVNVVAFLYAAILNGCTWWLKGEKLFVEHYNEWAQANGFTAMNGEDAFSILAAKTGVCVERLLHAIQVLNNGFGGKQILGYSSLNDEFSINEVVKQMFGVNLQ

For `CC(C)C[C@H](NC(=O)C(F)(F)F)C(=O)N1C[C@H]2[C@@H]([C@H]1C(=O)NN(C[C@@H]1CCNC1=O)C(=O)[C@H](F)Cl)C2(C)C` [Example 3, N-[(1S)-1-[(1R,2S,5S)-2-[[[(2R)-2-chloro-2-fluoro-acetyl]-[[(3S)-2-oxopyrrolidin-3-yl]methyl]amino]carbamoyl]-6,6-dimethyl-3-azabicyclo[3.1.0]hexane-3-carbonyl]-3-methyl-butyl]-2,2,2-trifluoro-acetamide], the IC50 on SARS-CoV-2 3CLpro was determined as 14 nM; on HCoV-229E 3CLpro, 38 nM; against SARS-CoV 3CLpro it was 20 nM; at MERS-CoV 3CLpro it was 174 nM.

For `CC(C)(C)[C@H](NC(=O)C(F)(F)F)C(=O)N1C[C@@H]2CCC[C@@H]2[C@H]1C(=O)NN(C[C@@H]1CCNC1=O)C(=O)[C@H](F)Cl` [Example 4, N-[(1S)-1-[(3S,3aS,6aR)-3-[[[(2R)-2-chloro-2-fluoro-acetyl]-[[(3S)-2-oxopyrrolidin-3-yl]methyl]amino]carbamoyl]-3,3a,4,5,6,6a-hexahydro-1H-cyclopenta[c]pyrrole-2-carbonyl]-2,2-dimethyl-propyl]-2,2,2-trifluoro-acetamide], the 50% inhibitory concentration (IC50) is 6 nM at SARS-CoV-2 3CLpro (read-out: IC50 in SARS-CoV-2 3CLpro assay), 39 nM on HCoV-229E 3CLpro, 16 nM against SARS-CoV 3CLpro and 70 nM against MERS-CoV 3CLpro.

For `CC(C)(C)[C@H](NC(=O)C(F)(F)F)C(=O)N1C[C@@H]2CC[C@@H]2[C@H]1C(=O)NN(C[C@@H]1CCNC1=O)C(=O)[C@H](F)Cl` [Example 5, N-[(1S)-1-[(1S,2S,5R)-2-[[[(2R)-2-chloro-2-fluoro-acetyl]-[[(3S)-2-oxopyrrolidin-3-yl]methyl]amino]carbamoyl]-3-azabicyclo[3.2.0]heptane-3-carbonyl]-2,2-dimethyl-propyl]-2,2,2-trifluoro-acetamide], the IC50 on SARS-CoV-2 3CLpro was 10 nM; on HCoV-229E 3CLpro, 104 nM; on SARS-CoV 3CLpro, 19 nM; at MERS-CoV 3CLpro it was 303 nM.

With `C[C@@H]1C[C@@H](C(=O)NN(C[C@@H]2CCNC2=O)C(=O)[C@H](F)Cl)N(C(=O)[C@@H](NC(=O)C(F)(F)F)C(C)(C)C)C1` [Example 7, N-[(1S)-1-[(2S,4R)-2-[[[(2R)-2-chloro-2-fluoro-acetyl]-[[(3S)-2-oxopyrrolidin-3-yl]methyl]amino]carbamoyl]-4-methyl-pyrrolidine-1-carbonyl]-2,2-dimethyl-propyl]-2,2,2-trifluoro-acetamide], the IC50 at SARS-CoV-2 3CLpro was 8 nM; on HCoV-229E 3CLpro it was 193 nM; on SARS-CoV 3CLpro, 17 nM; against MERS-CoV 3CLpro it was 379 nM.

In the case of `CC1(C)C[C@@H](C(=O)NN(C[C@@H]2CCNC2=O)C(=O)[C@H](F)Cl)N(C(=O)[C@@H](NC(=O)C(F)(F)F)C(C)(C)C)C1` [Example 8, N-[(1S)-1-[(2S)-2-[[[(2R)-2-chloro-2-fluoro-acetyl]-[[(3S)-2-oxopyrrolidin-3-yl]methyl]amino]carbamoyl]-4,4-dimethyl-pyrrolidine-1-carbonyl]-2,2-dimethyl-propyl]-2,2,2-trifluoro-acetamide], the IC50 was 10 nM on SARS-CoV-2 3CLpro, 42 nM on HCoV-229E 3CLpro, 25 nM at SARS-CoV 3CLpro and 136 nM at MERS-CoV 3CLpro.

Take `CC(C)(C)[C@H](NC(=O)C(F)(F)F)C(=O)N1C[C@@H]2C[C@@H]2[C@H]1C(=O)NN(C[C@@H]1CCNC1=O)C(=O)[C@H](F)Cl` [Example 9, N-[(1S)-1-[(1S,2S,5R)-2-[[[(2R)-2-chloro-2-fluoro-acetyl]-[[(3S)-2-oxopyrrolidin-3-yl]methyl]amino]carbamoyl]-3-azabicyclo[3.1.0]hexane-3-carbonyl]-2,2-dimethyl-propyl]-2,2,2-trifluoro-acetamide]: the IC50 worked out at 12 nM against SARS-CoV-2 3CLpro, 939 nM against HCoV-229E 3CLpro, 38 nM on SARS-CoV 3CLpro and 2780 nM on MERS-CoV 3CLpro.

Take `CC(C)(C)[C@H](NC(=O)C(F)(F)F)C(=O)N1C[C@H]2[C@@H]([C@H]1C(=O)NN(Cc1cc[nH]n1)C(=O)[C@H](F)Cl)C2(C)C` [Example 10, N-[(1S)-1-[(1R,2S,5S)-2-[[[(2R)-2-chloro-2-fluoro-acetyl]-(1H-pyrazol-3-ylmethyl)amino]carbamoyl]-6,6-dimethyl-3-azabicyclo[3.1.0]hexane-3-carbonyl]-2,2-dimethyl-propyl]-2,2,2-trifluoro-acetamide]: the IC50 was 21 nM against SARS-CoV-2 3CLpro, 1240 nM against HCoV-229E 3CLpro, 373 nM at SARS-CoV 3CLpro and 3040 nM against MERS-CoV 3CLpro.

As to `CC(C)(C)C(=O)N[C@H](C(=O)N1C[C@H]2[C@@H]([C@H]1C(=O)NN(C[C@@H]1CCNC1=O)C(=O)[C@H](F)Cl)C2(C)C)C(C)(C)C` [Example 11, N-[(1S)-1-[(1R,2S,5S)-2-[[[(2R)-2-chloro-2-fluoro-acetyl]-[[(3S)-2-oxopyrrolidin-3-yl]methyl]amino]carbamoyl]-6,6-dimethyl-3-azabicyclo[3.1.0]hexane-3-carbonyl]-2,2-dimethyl-propyl]-2,2-dimethyl-propanamide], the IC50 amounted to 218 nM against SARS-CoV-2 3CLpro, 56 nM against HCoV-229E 3CLpro, 34 nM on SARS-CoV 3CLpro and 260 nM at MERS-CoV 3CLpro.

For the compound `CC(C)(C)[C@H](NC(=O)C1CC1)C(=O)N1C[C@H]2[C@@H]([C@H]1C(=O)NN(C[C@@H]1CCNC1=O)C(=O)[C@H](F)Cl)C2(C)C` [Example 12, N-[(1S)-1-[(1R,2S,5S)-2-[[[(2R)-2-chloro-2-fluoro-acetyl]-[[(3S)-2-oxopyrrolidin-3-yl]methyl]amino]carbamoyl]-6,6-dimethyl-3-azabicyclo[3.1.0]hexane-3-carbonyl]-2,2-dimethyl-propyl]cyclopropanecarboxamide], the IC50 on SARS-CoV-2 3CLpro was 15 nM; on HCoV-229E 3CLpro, 26 nM; at SARS-CoV 3CLpro, 17 nM; against MERS-CoV 3CLpro, 106 nM.

Regarding `CC(C)C(=O)N[C@H](C(=O)N1C[C@H]2[C@@H]([C@H]1C(=O)NN(C[C@@H]1CCNC1=O)C(=O)[C@H](F)Cl)C2(C)C)C(C)(C)C` [Example 13, N-[(1S)-1-[(1R,2S,5S)-2-[[[(2R)-2-chloro-2-fluoro-acetyl]-[[(3S)-2-oxopyrrolidin-3-yl]methyl]amino]carbamoyl]-6,6-dimethyl-3-azabicyclo[3.1.0]hexane-3-carbonyl]-2,2-dimethyl-propyl]-2-methyl-propanamide], the IC50 was determined as 9 nM against SARS-CoV-2 3CLpro, 24 nM against HCoV-229E 3CLpro, 14 nM against SARS-CoV 3CLpro and 94 nM at MERS-CoV 3CLpro.

Regarding `CC(C)(C)[C@H](NC(=O)C(F)F)C(=O)N1C[C@H]2[C@@H]([C@H]1C(=O)NN(C[C@@H]1CCNC1=O)C(=O)[C@H](F)Cl)C2(C)C` [Example 14, N-[(1S)-1-[(1R,2S,5S)-2-[[[(2R)-2-chloro-2-fluoro-acetyl]-[[(3S)-2-oxopyrrolidin-3-yl]methyl]amino]carbamoyl]-6,6-dimethyl-3-azabicyclo[3.1.0]hexane-3-carbonyl]-2,2-dimethyl-propyl]-2,2-difluoro-acetamide], the IC50 against SARS-CoV-2 3CLpro stood at 7 nM; at HCoV-229E 3CLpro, 36 nM; against SARS-CoV 3CLpro, 18 nM; against MERS-CoV 3CLpro, 121 nM.

As usually defined, the IC50 is the concentration needed to halve the response being measured.
